Literature values in US6071923A, “Retinoyloxy aryl-substituted alkylene butyrates useful for the treatment of cancer and other proliferative diseases” (Bar-Ilan University, priority 1997, dated 2000).
“And” between values parts separate entries of the source, which are not always exact repeats. Equal values may be shown once. Read-outs that look alike come from different tables or passages of the source.

System: HL-60 cells
[1] = HL-60 human promyelocytic cell line, agent alone, read-out: ED50, induction of differentiation of HL-60 cells, agent alone

| Compound | dose reduction index value (HL-60 cells, BA ED50 alone versus with about 28 nM RA) | EC50 (HL-60 cells, BA combined with about 28 nM RA, read-out: ED50 value for BA in combination with RA) [µM] | EC50 [1] |
| --- | --- | --- | --- |
| CCCC(=O)O [BA, Butyric acid] | about 6 fold | ~75 | 444 µM and ~400 µM |
| CC1=C(/C=C/C(C)=C/C=C/C(C)=C/C(=O)O)C(C)(C)CCC1 [RA, retinoic acid] | – | – | 0.13 µM |
